In patent publication US20210030703A1, “USE OF CALORIC RESTRICTION MIMETICS FOR POTENTIATING CHEMO-IMMUNOTHERAPY FOR THE TREATMENT OF CANCERS” (INSERM (INSTITUT NATIONAL DE LA SANTÉ ET DE LA RECHERCHE …, priority 2018, published 2021):

Legend:
[1] = tested on: PD-L1; assay: PD-L1 expression on CD45+/- tumor infiltrating cells; format: in vivo, C57B1/6 mice
Excerpt: WT 9 weeks old C57B1/6 mice were subcutaneously injected with MCA205 WT fibrosarcoma cells. When tumors became palpable, mice underwent two days of fasting (d-2 to d0). HC treatment in drinking water began the day after (d-1), followed by chemotherapy with MTX (d0). 11 days post-chemotherapy, mice were sacrified and tumors were collected, dissociated, filtrated and stained with panel 3 antibodies. The results are represented as percentage among viable cells. […] The data shown represent a pool of two independent experiments sharing all the groups. Statistical analysis were realized using ordinary one-way ANOVA. ****p<0.001, ***p<0.005, **p<0.01, *p<0.05.
(§1) 3 or 11 days post-chemotherapy (d3 or d11), mice were euthanized and the tumors were withdrawn and placed in gentleMACS C tubes (ref 130-096-334 from Miltenyi Biotec™) previously filled with 1 ml of DMEM or RPMI medium, and immediately put on ice. After a mechanical (with scissors) and chemical digestion (thanks to the tumor dissociation kit and the gentleMACS Octo Dissociator, ref 130-096-730 and 130-096-427, respectively, from Miltenyi Biotec™), tumors were filtered (using MACS smartstrainers […], ref 130-110-916 from Miltenyi Biotec™), washed twice with PBS and distributed in a 96-wells round bottom plate.
(§2) Then, cells were stained with a live dead dye (ref L34959 from ThermoFisher Scientific™) and an FCblock receptor targeting antibody. […] Finally, cells were resuspended in FACS buffer and analyzed on a flow cytometer BD LSR II.

[2] = tested on: PD-L2; assay: PD-L2 expression in tumor cells; format: in vivo, C57B1/6 mice; conditions: data not shown
Experimental: as §1, §2

SMILES	PD-L1 on non-leukocytes from the cancer (CD45- cells, mostly malignant cells) ([1]; MCA205 tumor-bearing mice treated with MTX (FIG. 8A, B))	PD-L1 in leukocytes expressing CD11b ([1]; MCA205 tumor-bearing mice treated with MTX (FIG. 8C, D))	Percentage of CD45- PD-L1+ cells ([1]; MTX alone or in combination with NF or HC, 11 days post-chemotherapy (FIG. 8A))	Mean fluorescent intensity of PD-L1 on CD45- cells ([1]; MTX alone or in combination with NF or HC, 11 days post-chemotherapy (FIG. 8B))	Percentage of CD45+ PD-L1+ cells ([1]; MTX alone or in combination with NF or HC, 11 days post-chemotherapy (FIG. 8C))	Mean fluorescent intensity (D) of PD-L1 on CD45- cells ([1]; MTX alone or in combination with NF or HC, 11 days post-chemotherapy (FIG. 8D))	PD-L2 expression in CD45- cells ([2]; MTX)	Effect of co-treatment on MTX-induced PD-L1 upregulation ([1]; FIG. 8A-D)	Effect of co-treatment on MTX-induced PD-L2 increase in CD45- cells [2]
O=C1c2c(O)ccc(O)c2C(=O)c2c(NCCNCCO)ccc(NCCNCCO)c21 [MTX, mitoxantrone]	upregulation	upregulation	increases	increases	increases	increases	increase		
O=C(O)CC(O)(C(=O)O)C(O)C(=O)O (stereo not drawn) [HC, hydroxycitrate]								not altered	not affected
